Assay results: US9951046B2, “TRPA1 modulators” (Algomedix, Inc., priority 2014, dated 2018)
Read-outs that look alike come from different tables or passages of the source.

Legend:
[1] = target: T1, human TRPA1 (Homo sapiens, UniProt O75762); experiment: Cell-based functional intracellular calcium ([Ca2+]i) assay, Fluo-4/Fluo-8, FlexStation, challenge with reference TRPA1 agonist (FFA, AITC or 4-HNE)
T1 construct: expressed in transfected cells
Method in brief: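 Doxycycline-induced (1 μg/ml) HEK293 expressing human TRPA1, with 5 μM ruthenium red during induction, loaded with Fluo-4 or Fluo-8 plus 2 mM probenecid; FlexStation read at 20-25° C, sometimes with 0.1% BSA.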

[2] = test system: neuropathic pain after L5-L6 spinal nerve injury; experiment: Spinal nerve ligation (SNL, Chung) neuropathic pain model, von Frey test; format: in vivo, rat; conditions: 30 mg/kg i.p.; for % MPE (% Maximum Possible Effect): rat, 18 days after L5-L6 spinal nerve injury, von Frey test 2 hrs post-dose, number of experiments in brackets; for anti-allodynic effect on paw withdrawal threshold and % MPE: rats 18 days after L5-L6 spinal nerve injury, mechanical allodynia 2 hrs post-dose, p<0.001 vs vehicle
From the text: This example describes the use of an animal model for testing compounds of the disclosure for their ability to reduce neuropathic pain. For the neuropathic pain model (spinal nerve ligation, SNL) also known as the Chung model, rats are anesthetized with isoflurane and placed on a heating pad. Using aseptic techniques, the L5 and L6 spinal nerves are exposed, ligated and transected (Kim, S. H. and Chung, J. […] Muscle and skin are closed with 4-0 Polydiaxone and wound clips, respectively. Allodynia is assessed 2-4 weeks post SNL surgery and only rats that develop allodynia as defined by a significant decrease in their mechanical threshold using von Frey filaments are used. Tactile allodynia is assessed with calibrated von Frey filaments (Stoelting Co, Wood Dale, Ill.), using an up-down paradigm (Chaplan, S. R., et al. (1994) J. Neurosci. Methods, 53 (1): 55-63). […] Test compounds are administered to the surgically treated rats either orally or I.P, and pain measurements are assessed at post-dosing intervals that correspond to near-maximal peak plasma concentrations for the test compound and specific mode of administration. The action of test compounds 175, 180, and 198 was evaluated in the Chung model after surgery to induce neuropathy. […] (10 ml/kg) was administered as a positive control group. Vehicle and test compounds were dissolved in 10% DMSO, 20% Tween-80 and 40% PEG-400. On the day before treatment, the neuropathic pain basal response was measured by von Frey test and the rats were randomized based on PWT responses. A cut-off of <4.0 g was considered before selection of animals for treatment. On the day of treatment, the test compounds were administered at 30 mg/kg i.p. (10 ml/kg) dissolved in 10% DMSO, 20% Tween-80, 40% PEG-400. […] (10 ml/kg). The mechanical allodynia was measured at 2 hrs post-dose. Results for compound 175 are shown in FIGS. 1 and 2 where data are presented as paw withdrawal threshold (PWT in g) (FIG. 1) and percentage of maximal possible effect (% MPE) (FIG. 2). Each bar represents the mean±SEM of 8 rats.

[3] = test system: paclitaxel-induced neuropathic pain; experiment: Paclitaxel chemotherapy-induced neuropathic pain model, von Frey filaments; format: in vivo; conditions: rat paclitaxel model, 10 mg/kg i.p.; for % MPE for reversing paclitaxel induced neuropathic pain: mechanical allodynia (von Frey)
From the text: Chemotherapy-induced peripheral neuropathy is one of the most serious complications of anti-cancer drug therapy. […] The TRPA1 antagonist, AD_09, has been reported to reduce neuropathic pain in the oxaliplatin model (Nativi, C, et al. (2013) Scientific Reports 3, 2005, 1-10.)
The studies described below provide a method to test compounds of the present invention in the established rat model of paclitaxel-induced neuropathic pain (Flatters, S J and Bennett, G, Pain (2004) 109:150-161) and provide evidence for efficacy for one compound of the present invention. In this procedure, male Sprague-Dawley rats received i.p. injections of 1 mg/kg paclitaxel or vehicle solution every other day for a total of 4 injections (Day 0, 2, 4 and 6). After receiving injections on even-number experimental days, the rats were tested for mechanical and cold allodynia on odd-number experimental days. After the full development of allodynia after the last paclitaxel injection on day 11, one subgroup of the rats (7 rats per treatment group) received an oral dose or i.p. injection of compound of the present invention (e.g., 1, 3, 10 or 30 mg/kg) or its vehicle solution. On the day of treatment, the test compound was administered at 10 mg/kg i.p. (2 ml/kg) dissolved in 10% DMSO, 20% Tween-80, 40% PEG-400. Additional test groups included vehicle control and gabapentin at 10, 30 and 100 mg/kg i.p. (2 ml/kg). The mechanical allodynia was measured at 2 hrs post-dose for compound 271. Mechanical allodynia was measured using the Von Frey filaments to determine the paw withdrawal threshold for each animal and assess the effects of the test compound-s to reduce pain. Rats were tested for mechanical and/or cold allodynia 1 hour after dosing.
Rats can be tested at approximately 2 hour intervals thereafter (time interval dependent on the effect) as long as the effect of TRPA1 antagonist lasts. In some cases, more than one treatment of the compound of the present invention (TRPA1 antagonist) can be given before or after the effect of the previous dose subsides to provide repetitive dosing regimens.

[4] = HEK293 cells expressing human TRPA1, IC50 class after addition of reference TRPA1 agonist (FFA, AITC or 4-HNE), read-out: human TRPA1-HEK Activity

T1 sequence (O75762 whole entry): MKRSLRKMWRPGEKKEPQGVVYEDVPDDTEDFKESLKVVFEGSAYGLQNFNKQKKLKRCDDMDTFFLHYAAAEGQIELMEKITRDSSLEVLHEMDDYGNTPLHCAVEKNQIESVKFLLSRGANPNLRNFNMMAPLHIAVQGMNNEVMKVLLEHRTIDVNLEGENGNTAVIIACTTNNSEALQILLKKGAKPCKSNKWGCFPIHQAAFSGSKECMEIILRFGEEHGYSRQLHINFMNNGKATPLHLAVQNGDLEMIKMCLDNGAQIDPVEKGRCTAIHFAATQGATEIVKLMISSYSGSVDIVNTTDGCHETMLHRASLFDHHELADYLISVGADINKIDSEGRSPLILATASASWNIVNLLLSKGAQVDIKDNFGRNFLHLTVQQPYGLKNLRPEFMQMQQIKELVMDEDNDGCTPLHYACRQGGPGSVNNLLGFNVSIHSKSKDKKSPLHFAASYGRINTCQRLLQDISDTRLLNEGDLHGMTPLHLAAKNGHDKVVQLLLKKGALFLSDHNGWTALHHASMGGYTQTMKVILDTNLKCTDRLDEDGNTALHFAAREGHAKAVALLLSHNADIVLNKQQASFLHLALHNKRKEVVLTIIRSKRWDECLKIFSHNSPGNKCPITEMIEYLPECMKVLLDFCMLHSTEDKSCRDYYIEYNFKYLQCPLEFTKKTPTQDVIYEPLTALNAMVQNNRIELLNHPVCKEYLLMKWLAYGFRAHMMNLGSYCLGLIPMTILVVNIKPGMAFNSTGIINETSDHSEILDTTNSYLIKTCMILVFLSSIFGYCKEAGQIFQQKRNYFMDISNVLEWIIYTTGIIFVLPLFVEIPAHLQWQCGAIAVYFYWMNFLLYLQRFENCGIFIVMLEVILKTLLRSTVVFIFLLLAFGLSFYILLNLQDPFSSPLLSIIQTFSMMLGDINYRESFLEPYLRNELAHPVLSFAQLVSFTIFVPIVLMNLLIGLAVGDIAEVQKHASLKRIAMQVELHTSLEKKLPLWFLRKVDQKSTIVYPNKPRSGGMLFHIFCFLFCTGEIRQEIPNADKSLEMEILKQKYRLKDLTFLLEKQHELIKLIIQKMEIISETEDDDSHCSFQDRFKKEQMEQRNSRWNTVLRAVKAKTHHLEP

Compound: O=C(c1cc(-c2cccnc2)n(-c2cc(F)c(F)c(F)c2)n1)N1CCC(n2c(=O)[nH]c3ccc(F)c(F)c32)CC1 [Compound 198]
- IC50 [1, 4]: 0.001 to 5 µM
- % MPE (% Maximum Possible Effect) [2]: 41 (1) %
- anti-allodynic effect on paw withdrawal threshold and % MPE [2]: significant anti-allodynic effect

Compound: O=C(c1cc(-c2cccnc2)n(-c2ccc(C(F)(F)F)c(F)c2)n1)N1CCC2(CC1)C(=O)NCN2c1ccc(F)cc1 [Compound 180]
- IC50 [1, 4]: 0.001 to 5 µM
- % MPE (% Maximum Possible Effect) [2]: 65 (1) %
- anti-allodynic effect on paw withdrawal threshold and % MPE [2]: significant anti-allodynic effect

Compound: O=C(c1cc(-c2ccncc2)n(-c2cc(F)c(F)c(F)c2)n1)N1CCC(n2c(=O)[nH]c3ccc(F)c(F)c32)CC1 [Compound 175]
- IC50 [1, 4]: 0.001 to 5 µM
- % MPE (% Maximum Possible Effect) [2]: 59 ± 10 (3) ^ %
- anti-allodynic effect on paw withdrawal threshold and % MPE [2]: significant anti-allodynic effect

Compound: O=C(c1cc(-c2cccnc2)n(-c2ccc(F)c(C(F)(F)F)c2)n1)N1CCC(n2c(=O)[nH]c3ccc(F)c(F)c32)CC1 [Compound 271]
- anti-allodynic effect on paw withdrawal threshold ([3]; 2 hrs post-dose, p<0.05): significant anti-allodynic effect
- % MPE for reversing paclitaxel induced neuropathic pain [3]: 49.1 % MPE

Compound: NCC1(CC(=O)O)CCCCC1 [gabapentin, reference compound]
- % MPE for reversing paclitaxel induced neuropathic pain [3]: 34.8 % MPE

Compound: O=C(c1cc(-c2ccncc2)n(-c2cc(F)c(F)c(F)c2)n1)N1CCC2(CC1)C(=O)NCN2c1ccccc1 [Compound 140]
- IC50 [1, 4]: 5 to 25 µM

Compound: N#Cc1ccc(-n2nc(C(=O)N3C4CCC3CC3(C4)C(=O)NCN3c3ccc(F)cc3)cc2-c2cccnc2)cc1F (centres unmarked) [Compound 330]
- IC50 [1]: 0.001 to 5 µM

Compound: N#Cc1ccc(-n2nc(C(=O)N3CCC(n4c(=O)[nH]c5ccc(F)c(F)c54)CC3)cc2-c2cccnc2)cc1F [Compound 224]
- IC50 [1, 4]: 0.001 to 5 µM

Compound: O=C(c1cc(-c2cccnc2)n(-c2ccc(C(F)(F)F)c(F)c2)n1)N1CCC(n2c(=S)[nH]c3ccc(F)c(F)c32)CC1 [Compound 182]
- IC50 [1, 4]: 0.001 to 5 µM

Compound: O=C(c1cc(-c2ccncc2)n(-c2ccc(C(F)(F)F)nc2)n1)N1CCC2(CC1)C(=O)NCN2c1ccccc1 [Compound 164]
- IC50 [1, 4]: 5 to 25 µM

Compound: O=C(c1cc(-c2ccncc2)n(-c2ccc(F)c(F)c2)n1)N1CCC(N2C(=O)OC[C@H]2c2ccccc2)CC1 [Compound 84]
- IC50 [1, 4]: > 25 µM

Compound: N#Cc1cc(C(F)(F)F)ccc1-n1nc(C(=O)N2CCC(n3c(=O)[nH]c4ccc(F)c(F)c43)CC2)cc1-c1cccnc1 [Compound 245]
- IC50 [1, 4]: > 25 µM

Compound: O=C(c1cc(-c2ccncc2)n(-c2cc(C(F)(F)F)cc(C(F)(F)F)c2)n1)N1CCC2(CC1)OCCO2 [Compound 160]
- IC50 [1]: > 25 µM

Compound: O=C(c1cc(-c2ccncc2)n(-c2ccc(C(F)(F)F)c(F)c2)n1)N1CCC(c2nc3ccccc3o2)CC1 [Compound 108]
- IC50 [1, 4]: > 25 µM

Compound: O=C1OC2(CCN(C(=O)c3cc(-c4ccncc4)n(-c4ccc(C(F)(F)F)c(F)c4)n3)CC2)c2ccc(Cl)cc21 [Compound 103]
- IC50 [1, 4]: > 25 µM

Compound: O=C(c1nn(-c2ccc(F)c(C(F)(F)F)c2)c2c1CCc1ncccc1-2)N1CCC(n2c(=O)[nH]c3ccc(F)c(F)c32)CC1 [Compound 314]
- IC50 [1, 4]: 0.001 to 5 µM

Compound: O=C(c1cc(-c2cccnc2)n(-c2ccc(F)c(C(F)(F)F)c2)n1)N1C2CCC1CC(n1c(=O)[nH]c3ccc(F)c(F)c31)C2 (centres unmarked) [Compound 331]
- IC50 [1]: 0.001 to 5 µM

Compound: O=C(c1cc(-c2ccncc2)n(-c2ccc(C(F)(F)F)nc2)n1)N1CCC(N2C(=O)Cc3ccccc32)CC1 [Compound 119]
- IC50 [1]: > 25 µM

Compound: O=C(c1cc(-c2ccncc2)n(-c2ccccc2)n1)N1CCC2(CCCC2)CC1 [Compound 4]
- IC50 [1, 4]: > 25 µM

Compound: O=C(c1cc(-c2cccnc2Cl)n(-c2ccc(C(F)(F)F)c(F)c2)n1)N1CCC(n2c(=O)[nH]c3ccc(F)c(F)c32)CC1 [Compound 247]
- IC50 [1, 4]: > 25 µM

Compound: Cc1cc(N2CNC(=O)C23CCN(C(=O)c2cc(-c4cccnc4)n(-c4ccc(F)c(C(F)(F)F)c4)n2)CC3)cc(C)c1F [Compound 242]
- IC50 [1, 4]: 0.001 to 5 µM

Compound: O=C(c1cc(-c2cccnc2)n(-c2ccc(C(F)(F)F)c(F)c2)n1)N1CCC2(CC1)C(=O)NCN2c1ccc(Br)cc1 [Compound 184]
- IC50 [1, 4]: > 25 µM

Compound: O=C(c1cc(-c2ccncc2)n(-c2ccc(F)c(F)c2)n1)N1CCC(c2nc3ccccc3o2)CC1 [Compound 87]
- IC50 [1, 4]: > 25 µM

Compound: O=C(c1cc(-c2ccncc2)n(-c2ccc(C(F)(F)F)c(F)c2)n1)N1CCC2(CC1)OCc1ccccc12 [Compound 101]
- IC50 [1, 4]: > 25 µM

Compound: O=C(c1cc(-c2ccncc2)n(-c2ccc(C(F)(F)F)cc2)n1)N1CCC2(CC1)SCCS2 [Compound 63]
- IC50 [1, 4]: > 25 µM

Compound: O=C(c1cc(-c2cccnc2)n(-c2ccc(C(F)(F)F)c(F)c2)n1)N1CCC2(CC1)C(=O)NCN2c1ccc(F)c(C(F)(F)F)c1 [Compound 187]
- IC50 [1, 4]: 0.001 to 5 µM

Compound: CN1C(=O)NC2(CCN(C(=O)c3cc(-c4ccncc4)n(-c4ccccc4)n3)CC2)C1=O [Compound 174]
- IC50 [1, 4]: > 25 µM

Compound: O=C(c1cc(-c2cccnc2)n(-c2ccc(C(F)(F)F)c(F)c2)n1)N1C2CCC1CC1(C2)C(=O)NCN1c1ccc(F)cc1 (centres unmarked) [Compound 193]
- IC50 [1]: 0.001 to 5 µM

Compound: O=C(c1cc(-c2ccncc2)n(-c2ccc(F)c(F)c2)n1)N1CCC2(CC1)SCCS2 [Compound 85]
- IC50 [1, 4]: > 25 µM

Compound: O=C(c1cc(-c2ccncc2)n(-c2ccc(F)c(F)c2)n1)N1CC(=O)N2CCc3ccccc3C2C1 (centres unmarked) [Compound 82]
- IC50 [1, 4]: > 25 µM

Compound: O=C(c1cc(-c2ccncc2)n(-c2ccc(C(F)(F)F)cc2)n1)N1CCC2(CC1)C(=O)NCN2c1ccc(F)cc1 [Compound 55]
- IC50 [1, 4]: 0.001 to 5 µM

Compound: O=C(c1cc(-c2cccnc2)n(-c2ccc(F)c(C(F)(F)F)c2)n1)N1CCC(n2c(=O)[nH]c3cc(F)c(F)c(F)c32)CC1 [Compound 297]
- IC50 [1, 4]: 0.001 to 5 µM

Compound: O=C(c1cc(-c2ccncc2)n(-c2ccc(F)c(F)c2)n1)N1CCC2(CC1)OCCO2 [Compound 151]
- IC50 [1]: > 25 µM

Compound: O=C(c1cc(-c2ccncc2)n(-c2ccc(F)c(F)c2)n1)N1CCC2(CC1)C(=O)NCN2c1ccccc1 [Compound 149]
- IC50 [1, 4]: 5 to 25 µM

Compound: O=C(c1cc(-c2cccnc2)n(-c2ccc(F)c(C(F)(F)F)c2)n1)N1CCC2(CC1)C(=O)NCN2c1cc(Cl)c(F)c(Cl)c1 [Compound 332]
- IC50 [1, 4]: 0.001 to 5 µM

Compound: O=C(c1cc(-c2cccnc2)n(-c2cc(F)c(F)c(F)c2)n1)N1CCC2(CC1)C(=O)NCN2c1ccc(F)cc1 [Compound 253]
- IC50 [1, 4]: 0.001 to 5 µM

Compound: O=C(c1cc(-c2cccnc2)n(-c2ccc(C(F)(F)F)c(F)c2F)n1)N1CCC(n2c(=O)[nH]c3ccc(F)c(F)c32)CC1 [Compound 222]
- IC50 [1, 4]: 0.001 to 5 µM

Compound: O=C(c1cc(-c2cccnc2)n(-c2ccc(I)c(C(F)(F)F)c2)n1)N1CCC(n2c(=O)[nH]c3ccc(F)c(F)c32)CC1 [Compound 327]
- IC50 [1, 4]: 0.001 to 5 µM

Compound: O=C1Nc2ccc(F)cc2C2(CCN(C(=O)c3cc(-c4cccnc4)n(-c4ccc(C(F)(F)F)c(F)c4)n3)CC2)O1 [Compound 230]
- IC50 [1, 4]: 0.001 to 5 µM

Compound: O=C(c1cc(-c2cccnc2)n(-c2ccc(F)c(C(F)(F)F)c2)n1)N1CCC(n2c(=O)[nH]c3ccc(F)c(F)c32)CC1 [Compound 241]
- IC50 [1, 4]: 0.001 to 5 µM
